Structures are written as SMILES.

The target of data set [1] is T1, Histone-lysine N-methyltransferase NSD2 (Homo sapiens, UniProt O96028).
T1 sequence (O96028 whole entry): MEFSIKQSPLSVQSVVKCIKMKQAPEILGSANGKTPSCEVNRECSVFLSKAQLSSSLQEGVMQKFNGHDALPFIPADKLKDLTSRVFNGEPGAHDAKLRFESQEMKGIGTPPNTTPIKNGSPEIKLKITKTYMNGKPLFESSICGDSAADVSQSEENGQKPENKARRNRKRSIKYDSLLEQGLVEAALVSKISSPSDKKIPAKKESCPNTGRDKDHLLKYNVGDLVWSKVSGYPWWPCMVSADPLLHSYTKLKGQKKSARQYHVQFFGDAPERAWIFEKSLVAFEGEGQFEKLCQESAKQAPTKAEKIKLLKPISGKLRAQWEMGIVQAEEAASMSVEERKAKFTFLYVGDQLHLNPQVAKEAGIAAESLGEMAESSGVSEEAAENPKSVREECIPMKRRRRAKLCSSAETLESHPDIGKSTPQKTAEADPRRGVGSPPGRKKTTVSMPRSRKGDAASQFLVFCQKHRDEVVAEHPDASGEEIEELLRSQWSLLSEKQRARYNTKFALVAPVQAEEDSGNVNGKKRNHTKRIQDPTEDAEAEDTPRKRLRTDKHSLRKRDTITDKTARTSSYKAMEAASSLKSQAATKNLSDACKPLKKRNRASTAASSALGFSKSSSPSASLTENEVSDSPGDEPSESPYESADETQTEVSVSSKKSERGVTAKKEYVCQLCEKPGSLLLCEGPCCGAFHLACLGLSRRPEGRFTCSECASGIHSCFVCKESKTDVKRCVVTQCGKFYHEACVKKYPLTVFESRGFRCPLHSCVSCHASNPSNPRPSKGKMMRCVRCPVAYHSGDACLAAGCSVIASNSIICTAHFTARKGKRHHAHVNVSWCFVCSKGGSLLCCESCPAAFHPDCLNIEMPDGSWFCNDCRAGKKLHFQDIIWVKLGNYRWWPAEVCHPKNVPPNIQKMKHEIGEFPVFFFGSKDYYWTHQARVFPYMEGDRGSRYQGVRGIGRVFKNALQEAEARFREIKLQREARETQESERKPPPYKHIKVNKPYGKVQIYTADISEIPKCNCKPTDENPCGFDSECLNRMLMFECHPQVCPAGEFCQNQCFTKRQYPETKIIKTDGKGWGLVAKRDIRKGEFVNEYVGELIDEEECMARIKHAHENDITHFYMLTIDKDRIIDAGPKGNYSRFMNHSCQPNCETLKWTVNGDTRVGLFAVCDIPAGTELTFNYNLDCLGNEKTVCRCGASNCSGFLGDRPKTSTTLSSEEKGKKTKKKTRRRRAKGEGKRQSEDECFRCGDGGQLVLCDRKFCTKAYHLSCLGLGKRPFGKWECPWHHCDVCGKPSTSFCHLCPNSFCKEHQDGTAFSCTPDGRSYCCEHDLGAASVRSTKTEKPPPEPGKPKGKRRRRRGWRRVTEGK
The experiment in a line: Inhibition of recombinant human NSD2 (941 to 1240 residues) using SAM as substrate incubated for 3 hrs by AlphaLISA assay. In general terms: Bead proximity is the source of the signal in Alpha formats.

Data set [2] in a line: Tmax in ICR mouse at 3 mg/kg, po measured for 24 hrs by LC-MS/MS analysis. In kind it is ADME, organism-based. As to conditions: in vivo.
Data set [3] is described as follows: Cmax in ICR mouse at 3 mg/kg, po measured for 24 hrs by LC-MS/MS analysis. In kind it is ADME, organism-based. Details: dose 3 mg/kg, time 24 hrs, route po. Conditions: in vivo.
Data set [4] can be described thus: Observed clearance in ICR mouse at 1 mg/kg, iv measured for 24 hrs by LC-MS/MS analysis. In kind it is ADME, organism-based. Conditions: in vivo.
A further data set deals with KMS-11. In words: Antiproliferative activity against human KMS-11 cells assessed as inhibition of cell growth incubated for 6 days by CCK-8 assay. In kind it is functional, cell-based. Conditions: KMS-11, 144 h. (In general: Tetrazolium dyes change colour on reduction, which living cells bring about.)
Data set [5] can be described thus: Half life in ICR mouse at 1 mg/kg, iv measured for 24 hrs by LC-MS/MS analysis. In kind it is ADME, organism-based. As to conditions: in vivo.
The nature of data set [6]: AUClast in ICR mouse at 1 mg/kg, iv measured for 24 hrs by LC-MS/MS analysis. Type of data set: ADME, organism-based. Details: dose 1 mg/kg, time 24 hrs, route iv. As to conditions: in vivo.
A short description of data set [7]: Apparent permeability coefficient, Papp in MDCK cells. Conditions: dog. Type of data set: ADME, cell-based, Canis lupus familiaris.
The nature of data set [8]: Half life in ICR mouse at 3 mg/kg, po measured for 24 hrs by LC-MS/MS analysis. In kind it is ADME, organism-based. Conditions: in vivo.
Data set [9] in a line: Oral bioavailability in ICR mouse at 3 mg/kg measured for 24 hrs by LC-MS/MS analysis. Type of data set: ADME, organism-based. Conditions: in vivo.
The nature of data set [10]: AUClast in ICR mouse at 3 mg/kg, po measured for 24 hrs by LC-MS/MS analysis. As to conditions: in vivo. Details: dose 3 mg/kg, time 24 hrs, route po. In kind it is ADME, organism-based.
In data set [11] the target is T1, Histone-lysine N-methyltransferase NSD2. In words: Competitive inhibition of NSD2 (unknown origin) using SAM as substrate.
Data set [12] shares this target. In words: Inhibition of human NSD2 SET domain-mediated H3K36 methylation using histone H3 as substrate by colorimetric analysis.
In data set [13] the target is Histone-lysine N-methyltransferase EZH2 (Homo sapiens, UniProt Q15910). The experiment in a line: Inhibition of EZH2 (unknown origin) using SAM as substrate preincubated for 10 mins followed by substrate addition and measured after 4 hrs by HTRF analysis.
Sequence of Histone-lysine N-methyltransferase EZH2 (Q15910 whole entry): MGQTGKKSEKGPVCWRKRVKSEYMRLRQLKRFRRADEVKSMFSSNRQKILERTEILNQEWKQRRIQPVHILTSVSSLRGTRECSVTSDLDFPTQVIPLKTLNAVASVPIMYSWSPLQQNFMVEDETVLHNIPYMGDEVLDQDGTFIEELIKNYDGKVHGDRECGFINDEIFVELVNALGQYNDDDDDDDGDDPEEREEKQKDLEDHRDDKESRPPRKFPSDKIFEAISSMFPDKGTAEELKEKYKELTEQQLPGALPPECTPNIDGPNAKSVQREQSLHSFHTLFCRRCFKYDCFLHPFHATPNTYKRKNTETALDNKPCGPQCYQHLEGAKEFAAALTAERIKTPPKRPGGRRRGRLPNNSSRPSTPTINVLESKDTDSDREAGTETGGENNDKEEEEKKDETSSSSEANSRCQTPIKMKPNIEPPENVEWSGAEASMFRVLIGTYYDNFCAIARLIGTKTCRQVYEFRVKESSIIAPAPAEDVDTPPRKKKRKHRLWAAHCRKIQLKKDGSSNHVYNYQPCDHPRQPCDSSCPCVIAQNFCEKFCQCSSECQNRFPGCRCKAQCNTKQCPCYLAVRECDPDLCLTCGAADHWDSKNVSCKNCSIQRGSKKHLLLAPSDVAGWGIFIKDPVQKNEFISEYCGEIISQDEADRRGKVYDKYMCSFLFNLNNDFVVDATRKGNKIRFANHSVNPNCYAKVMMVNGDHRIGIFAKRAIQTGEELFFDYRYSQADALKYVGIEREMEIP

On to `O=C1C(NCCC2(O)CCN(C(=O)C3CC3(F)F)CC2)=C(Cl)C(=O)c2ncccc21` (stereo not drawn), for which, in data set [1], the half-inhibitory concentration (IC50) turned out to be 1280 nM.

Take `CC(C)(O)[C@H](F)CNC1=C(Cl)C(=O)c2ccc(N3CCC(F)(F)C3)nc2C1=O`: the IC50 in [1] was found to be 930 nM. Turning to `O=C1C(NC23CC(NC(=O)C4CC4(F)F)(C2)C3)=C(Cl)C(=O)c2ncccc21` (stereo not drawn), the concentration for half-maximal inhibition (IC50) in [1] was determined as 1460 nM.

Regarding `O=C1C(NCCc2c[nH]c3ccccc23)=C(Cl)C(=O)c2ncccc21`, the IC50 in data set [1] amounted to 2290 nM. `CC#CC(=O)N1CCC2(CC1)CN(C1=C(Cl)C(=O)c3cccnc3C1=O)C2`: the IC50 in [1] was found to be 760 nM. For the molecule `C[C@@](O)(C(=O)N1CCC(O)(CCNC2=C(Cl)C(=O)c3ncccc3C2=O)CC1)C(F)(F)F`, the half-inhibitory concentration (IC50) in data set [1] was found to be 990 nM. Consider `CC(F)(F)C(=O)NC12CC(NC3=C(Cl)C(=O)c4ncccc4C3=O)(C1)C2`, for which the time to peak (Tmax) in data set [2] worked out at 0.42 h. For the same molecule, the peak level in [3] (Cmax) was 707 ng/mL. The 50% inhibitory concentration (IC50) worked out at 330 nM in [1] and 350 nM with KMS-11. In data set [4], this molecule yielded a clearance of 33.4 mL/min/kg. The half-life in data set [5] is 1.92 h; in data set [8] it was 5.12 h. In addition, the AUC(0-t) at 24 h in data set [6] worked out at 476 ng·h/mL; in data set [10], 758 ng·h/mL. Besides, the apparent permeability (Papp) in data set [7] is 49.4 ×10⁻⁶ cm/s. In [9], the bioavailability stood at 53.1%. `NNc1nc2ccccc2nc1S` gave an IC50 in [11] of less than 3000 nM.

On to `C[C@@](O)(C(=O)N1CCC(O)(CCNC2=C(Cl)C(=O)c3cccnc3C2=O)CC1)C(F)(F)F`, for which the figures for the IC50 (in data set [1]; in the data set on KMS-11) were 240 nM and 8100 nM, respectively. Also, the Papp in data set [7] amounted to 17.8 ×10⁻⁶ cm/s. With `CC(F)(F)C(=O)NC12CC(NC3=C(Cl)C(=O)c4cccnc4C3=O)(C1)C2`, the values for the IC50 (in [1]; in the data set with KMS-11) were 300 nM and 2400 nM, respectively. The Papp in [7] was determined as 44.4 ×10⁻⁶ cm/s. As for `CC(C)(O)[C@H](F)CNC1=C(Cl)C(=O)c2cccnc2C1=O`, the half-maximal inhibitory concentration (IC50) in [1] was 300 nM; in the data set on KMS-11 it was 1680 nM. Further, the Papp in data set [7] worked out at 30.8 ×10⁻⁶ cm/s. For the molecule `O=C1C(Cl)=C(NC23CC(NC(=O)C4CC4(F)F)(C2)C3)C(=O)c2ncccc21` (stereo not drawn), the half-inhibitory concentration (IC50) in data set [1] was 410 nM. Take `C[C@@](O)(C(=O)NC12CC(NC3=CC(=O)c4ncccc4C3=O)(C1)C2)C(F)(F)F`: in [1], the IC50 was 1290 nM.

Take `CC(C)(O)[C@H](F)CNC1=C(Cl)C(=O)c2ccc(Cl)nc2C1=O`: the half-maximal inhibitory concentration (IC50) in data set [1] came to 250 nM; with KMS-11, 6070 nM. The Papp in data set [7] was determined as 29 ×10⁻⁶ cm/s.

Turning to `CC(C)(O)[C@H](F)CNC1=C(Cl)C(=O)c2ccc(N3C[C@@H](O)[C@H](O)C3)nc2C1=O`, the IC50 in data set [1] came out at 1220 nM.

Take `CC(F)(F)C(=O)NCCC1CCN(C2=C(Cl)C(=O)c3ncccc3C2=O)CC1`: the IC50 in data set [1] worked out at 1350 nM. The same measure, in the same setting: under `CC#CC(=O)NC1CN(C2=C(Cl)C(=O)c3cccnc3C2=O)C1` stands 310 nM; under `CC(F)(F)C(=O)N1CCC2(CC1)CN(C1=C(Cl)C(=O)c3ncccc3C1=O)C2`, 3050 nM. Consider `O=C1O[C@@H](C(=O)N2CCN(Cc3nc4sc5c(c4c(=O)[nH]3)CCCC5)CC2)Cc2ccccc21`, for which inhibition in data set [12] was half-maximal at 132000 nM (IC50). As for `CC#CC(=O)NC12CC(NC3=C(Cl)C(=O)c4cccnc4C3=O)(C1)C2`, the IC50 came to 250 nM in [1], 2210 nM with KMS-11 and 1040 nM in data set [13]. The Papp in data set [7] amounted to 42 ×10⁻⁶ cm/s.

With `CC(C)(O)[C@H](F)CNC1=C(Cl)C(=O)c2ccc(N3CCCC3)nc2C1=O`, the IC50 in [1] is 360 nM. As for `CC#CC(=O)NC1CN(C2=C(Cl)C(=O)c3ncccc3C2=O)C1`, the concentration for half-maximal inhibition (IC50) in [1] was 590 nM.

By IC50 is commonly meant the concentration that gives 50% inhibition. Usually Tmax stands for the time at which the peak concentration occurs. As usually defined, the Cmax is the maximum level reached in the sampled fluid or tissue. As a reminder, the clearance is the rate of elimination divided by the concentration. The half-life is the time needed for the level to fall by half in the phase considered. Low values mean fast loss, high ones slow loss. As a reminder, the AUC(0-t) is exposure summed from dosing to a finite time, without extrapolation to infinity. A low value points to low exposure. Usually Papp stands for a coefficient for how fast a substance crosses the barrier. As usually defined, the bioavailability is dose-corrected exposure relative to a reference, in per cent.

Values taken from ChEMBL document CHEMBL5316318, “Structural Modification and Pharmacological Evaluation of Substituted Quinoline-5,8-diones as Potent NSD2 Inhibitors” (J Med Chem, 2023).
